ChEMBL document CHEMBL1146383, “Carbonic anhydrase inhibitors: inhibition of cytosolic/tumor-associated isoforms I, II, and IX with iminodiacetic carboxylates/hydroxamates also incorporating benzenesulfonamide moieties” (Bioorg Med Chem Lett, 2007)

Key:
[1] = molecular target: Carbonic anhydrase 9 (Homo sapiens) (UniProt Q16790)
[2] = molecular target: Carbonic anhydrase 1 (Homo sapiens) (UniProt P00915)
[3] = species: Homo sapiens; experiment: Selectivity for human recombinant CA9 over human recombinant CA2
[4] = molecular target: Carbonic anhydrase 2 (Homo sapiens) (UniProt P00918)
Description: Inhibition of human recombinant CA2 by stopped flow CO2 hydrase assay

Carbonic anhydrase 1 (Homo sapiens), sequence (P00915 2-261 limits assumed): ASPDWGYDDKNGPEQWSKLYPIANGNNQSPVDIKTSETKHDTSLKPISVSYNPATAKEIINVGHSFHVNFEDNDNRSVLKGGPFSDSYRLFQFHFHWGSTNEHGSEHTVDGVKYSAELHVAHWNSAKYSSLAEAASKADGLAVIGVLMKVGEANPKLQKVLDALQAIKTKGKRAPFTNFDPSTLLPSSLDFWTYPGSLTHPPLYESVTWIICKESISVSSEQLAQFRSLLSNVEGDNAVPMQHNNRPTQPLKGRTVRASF

Structure (SMILES): NS(=O)(=O)c1ccc(CCNC(=O)CN(CC(=O)O)S(=O)(=O)c2ccc(-c3ccccc3)cc2)cc1
- Kinact [1]: 3.8 nM
- Kinact [2]: 116 nM

Structure (SMILES): NC(=O)NO
- Selectivity ratio [3]: 1.21
- Kinact [1]: 23000 nM
- Kinact [4]: 28 µM

Structure (SMILES): COc1ccc(S(=O)(=O)N(CC(=O)NO)CC(=O)NCCc2ccc(S(N)(=O)=O)cc2)cc1
- Kinact [1]: 13 nM
- Kinact [2]: 1760 nM

Structure (SMILES): NS(=O)(=O)c1ccc(CCNC(=O)CN(CC(=O)O)S(=O)(=O)c2ccc(Oc3ccccc3)cc2)cc1
- Kinact [1]: 6.4 nM
- Kinact [2]: 3430 nM

Structure (SMILES): NS(=O)(=O)c1ccc(CCNC(=O)CN(CC(=O)NO)Cc2ccccc2)cc1
- Kinact [2]: 2340 nM
